For test [1], the system named is Bacteroides fragilis. Type of test: cell-based.
Another test concerns Bacteroides vulgatus. Description: Antimicrobial agar dilution test of anaerobic bacteria (MIC). It counts as cell-based. The note with it: 48 h. (In general: In agar dilution the substance is mixed into plates at graded concentrations.)
The next test relates to S cerevisiae. Description: Microdilution antimicrobial susceptibility test (MIC). Type of test: cell-based. Particulars: broth microdilution, 18-24 h, MIC = 90% inhibition of growth; read-out: MIC S cerevisiae MIC7. Background: Broth dilution looks for growth in wells or tubes with falling amounts of substance.
The test system of another test is S aureus. Described as above. It counts as cell-based. Particulars: broth microdilution, 18-24 h, MIC = 90% inhibition of growth; read-out: MIC S aureus MIC2.
Test [2] relates to Bacteroides fragilis. As to the kind of experiment: Antimicrobial agar dilution test of anaerobic bacteria (MIC). It counts as cell-based. Particulars: 48 h.
In a further test the test system is E. coli. Description: Systemic bacterial infection model, mice infected with E. coli.
Another test relates to E faecalis. Description: Microdilution antimicrobial susceptibility test (MIC). It counts as cell-based. The note with it: broth microdilution, 18-24 h, MIC = 90% inhibition of growth; read-out: MIC E faecalis MIC2.
The test system of another test is E coli. Described as above. The note with it: broth microdilution, 18-24 h, MIC = 90% inhibition of growth; read-out: MIC E coli MIC2. Type of test: cell-based.
The subject of test [3] is Bacteroides thetaiotaomicron. Type of test: cell-based. The note with it: agar dilution, anaerobic, 48 h.
The next test concerns S. aureus. As to the kind of experiment: Systemic bacterial infection model, mice infected with S. aureus.
Another test deals with E coli (ImpA). Description: Microdilution antimicrobial susceptibility test (MIC). Particulars: broth microdilution, 18-24 h, MIC = 90% inhibition of growth; read-out: MIC E coli (ImpA) MIC9. It counts as cell-based. Here is the method:
Microdilution Antimicrobial Susceptibility Test Assay
Stock solutions of tested compounds were prepared in N,N-dimethylformamide (DMF) at a concentration of 5 mg/mL. Working solutions of the tested compounds were then prepared from the stock solutions, in Mueller-Hinton broth (MHB) with a starting concentration of 64 μg/mL.
Bacterial inocula were prepared from overnight culture (i.e., one fresh colony from agar plate in 5 ml MHB; H. influenzae was grown in MHB with the addition of yeast extract, haematin, and NAD), centrifuged 2×5 min/3000 rpm (for S. pneumoniae and H. influenzae, 2×10 min/3000 rpm), and dispensed in 5 ml of fresh MHB each time, such that the bacterial suspension is diluted to obtain 100 colony forming units (cfu) in a microplate well (100 μl total volume).
Microplate wells were filled with two-fold dilutions of test compound (50 Al), starting with 64 μg/ml. Wells were then filled with 50 μl of bacterial inoculum (final volume: 100 μl/well). The plates were incubated at 37° C. for 18-24 hours (S. pneumoniae was grown in a CO2-enriched atmosphere).

The next test deals with Clostridium perfringens. Type of test: cell-based. The note with it: disk 200 μg, anaerobic, 24-48 h.
A further test deals with Peptostreptococcus sp. It counts as cell-based.
The subject of a further test is Clostridium sp. Type of test: cell-based. Particulars: disk 200 μg, anaerobic, 24-48 h.
For a further test, the system named is H influenzae. As to the kind of experiment: Microdilution antimicrobial susceptibility test (MIC). It counts as cell-based. The note with it: broth microdilution, 18-24 h, MIC = 90% inhibition of growth; read-out: MIC H influenzae MIC4.
A further test concerns M. catarrhalis. The description is as above. It counts as cell-based. The note with it: Moraxella catarrhalis; broth microdilution, 18-24 h, MIC = 90% inhibition of growth; read-out: MIC M. catarrhalis MIC2.
The next test concerns S pneumoniae. The description is as above. The note with it: broth microdilution, 18-24 h, CO2-enriched atmosphere, MIC = 90% inhibition of growth; read-out: MIC S pneumoniae MIC6. It counts as cell-based.
The subject of the next test is P aeruginosa. The test is described as above. Type of test: cell-based. Particulars: broth microdilution, 18-24 h, MIC = 90% inhibition of growth; read-out: MIC P aeruginosa MIC2.
[4] abbreviates: Study #3, 50 mg/kg IP QD × 3, 6 days observation.
Setting [5] is: Study #3, 75 mg/kg IP QD × 3, 6 days observation.
Setting [6] is: Study #3, 100 mg/kg IP QD × 3, 6 days observation.
Setting [7] is: Study #2, 25 mg/kg IP QD × 3, 6 days observation.
The mark [8] stands for this setting: Study #2, 50 mg/kg IP QD × 3, 6 days observation.
The mark [9] stands for this setting: Clostridium perfringens (fresh wound isolate).
Where [10] appears, read: Clostridium perfringens, diameter includes disk.

≈ marks a conversion by molar mass, not a printed value. Read-outs that look alike come from different tables or passages of the source.

As for `Cn1c(S)nnc1-c1ccc([N+](=O)[O-])o1` [Compound 122, 5-[2-(5-Nitro)furyl]-4-methyl-4H-1,2,4-triazole-3-thiol], the Inhibition zones in the test on Bacteroides fragilis [1] (Bacteroides fragilis, disk 200 μg, anaerobic, 24-48 h) was 41 mm; in the test with Clostridium perfringens (setting [9]), 30 mm; in the test on Clostridium perfringens (setting [10]) it was 36 mm*; in the test on Peptostreptococcus sp (Peptostreptococcus sp (fresh abdominal aspirate), disk 200 μg, anaerobic, 24-48 h), 15 mm; with Clostridium sp. (Clostridium sp. (first listed strain)), 20 mm; in the test with Clostridium sp. (Clostridium sp. (second listed strain)), 40 mm. In the test with Bacteroides vulgatus, this compound yielded an MIC Bacteroides vulgatus below 0.125 µg/mL. For the same compound, the MIC in the test on S cerevisiae worked out at 32 µg/mL (≈ 141 µM); with S aureus, 2 µg/mL (≈ 8.84 µM); in the test with E faecalis, 2 µg/mL (≈ 8.84 µM); in the test with E coli, 4 µg/mL (≈ 17.7 µM); with E coli (ImpA) it was 0.25 µg/mL (≈ 1.11 µM); in the test on H influenzae, 8 µg/mL (≈ 35.4 µM). Moreover, the results for the MIC with M. catarrhalis and with S pneumoniae were below 0.12 µg/mL and 4 µg/mL (≈ 17.7 µM), respectively. Further, the MIC Bacteroides fragilis in the test on Bacteroides fragilis [2] (first B. fragilis column), against Bacteroides fragilis [2] (second B. fragilis column) and against Bacteroides fragilis [2] (third B. fragilis column) was below 0.125 µg/mL each time. The “Survival (%)” value with E. coli (Study #3, 25 mg/kg IP QD × 3, 6 days observation) was found to be 0%; in the test on E. coli (setting [4]) it was 60%; in the test on E. coli (setting [5]), 20%; in the test with E. coli (setting [6]), 0%; with S. aureus (setting [7]), 0%; in the test with S. aureus (setting [8]), 30%. Also, the “Survival (%)” value in the test on S. aureus (Study #2, 75 mg/kg IP QD × 3, 6 days observation) was 10%; in the test with S. aureus (Study #2, 100 mg/kg IP QD × 3, 6 days observation), 0%. In addition, in [3], the MIC Bacteroides thetaiotaomicron is below 0.125 µg/mL.
Consider `O=C1CN(/N=C/c2ccc([N+](=O)[O-])o2)C(=O)N1` [Nitrofurantoin, reference compound], for which the Inhibition zones in the test on Bacteroides fragilis [1] is recorded as above 25 mm**; in the test with Clostridium perfringens (setting [9]) it was 21 mm; with Clostridium perfringens (setting [10]), above 25 mm**; with Peptostreptococcus sp, 12 mm**. In the test on Bacteroides vulgatus, this compound registered an MIC Bacteroides vulgatus below 0.125 µg/mL. Also, the MIC in the test on S cerevisiae is above 64 µg/mL; in the test on S aureus it was 16 µg/mL (≈ 67.2 µM); with E faecalis, 4 µg/mL (≈ 16.8 µM); in the test on E coli, 8 µg/mL (≈ 33.6 µM); in the test on P aeruginosa, above 64 µg/mL; in the test with H influenzae, 4 µg/mL (≈ 16.8 µM). Also, the MIC in the test on M. catarrhalis and in the test on S pneumoniae was 2 µg/mL (≈ 8.4 µM) each time. Moreover, the MIC Bacteroides fragilis in the test with Bacteroides fragilis [2] (first B. fragilis column), against Bacteroides fragilis [2] (second B. fragilis column) and in the test on Bacteroides fragilis [2] (third B. fragilis column) was 2 µg/mL (≈ 8.4 µM) each time. Moreover, the “Survival (%)” value in the test on E. coli (setting [4]) amounted to 0%; with E. coli (setting [5]), 20%; with E. coli (setting [6]), 0%; in the test on S. aureus (setting [7]) it was 50%; in the test on S. aureus (setting [8]) it was 50%. In addition, in test [3], the MIC Bacteroides thetaiotaomicron worked out at 2 µg/mL (≈ 8.4 µM).
`CC[C@H]1OC(=O)[C@H](C)[C@@H](O[C@H]2C[C@@](C)(OC)[C@@H](O)[C@H](C)O2)[C@H](C)[C@@H](O[C@@H]2O[C@H](C)C[C@H](N(C)C)[C@H]2O)[C@](C)(O)C[C@@H](C)CN(C)[C@H](C)[C@@H](O)[C@]1(C)O` [Azithromycin] showed an MIC Bacteroides vulgatus against Bacteroides vulgatus of 1 µg/mL (≈ 1.34 µM). The MIC Bacteroides fragilis against Bacteroides fragilis [2] (first B. fragilis column), in the test with Bacteroides fragilis [2] (second B. fragilis column) and with Bacteroides fragilis [2] (third B. fragilis column) was 4 µg/mL (≈ 5.34 µM) throughout. The MIC Bacteroides thetaiotaomicron in test [3] was found to be 4 µg/mL (≈ 5.34 µM).
`CCN1CCN(C(=O)N[C@@H](C(=O)N[C@@H]2C(=O)N3[C@@H]2SC(C)(C)[C@@H]3C(=O)O)c2ccccc2)C(=O)C1=O` [Piperacillin] displayed an MIC Bacteroides vulgatus with Bacteroides vulgatus of 128 µg/mL (≈ 247 µM). Besides, the values for the MIC Bacteroides fragilis in the test on Bacteroides fragilis [2] (first B. fragilis column), with Bacteroides fragilis [2] (second B. fragilis column) and with Bacteroides fragilis [2] (third B. fragilis column) were 2 µg/mL (≈ 3.86 µM), 16 µg/mL (≈ 30.9 µM) and 2 µg/mL (≈ 3.86 µM), respectively. Further, the MIC Bacteroides thetaiotaomicron in test [3] amounted to 16 µg/mL (≈ 30.9 µM).

These data come from patent US20030166645A1, “Novel nitrofuran-containing heterocyclic compounds and uses thereof” (priority 2001, published 2003).
